From US6479548B2, “Substituted stilbenes as glucose uptake enhancers” (Telik, Inc., priority 2000, dated 2002) come the findings set out here.

T1 sequence (P06213 1023-1298 limits assumed): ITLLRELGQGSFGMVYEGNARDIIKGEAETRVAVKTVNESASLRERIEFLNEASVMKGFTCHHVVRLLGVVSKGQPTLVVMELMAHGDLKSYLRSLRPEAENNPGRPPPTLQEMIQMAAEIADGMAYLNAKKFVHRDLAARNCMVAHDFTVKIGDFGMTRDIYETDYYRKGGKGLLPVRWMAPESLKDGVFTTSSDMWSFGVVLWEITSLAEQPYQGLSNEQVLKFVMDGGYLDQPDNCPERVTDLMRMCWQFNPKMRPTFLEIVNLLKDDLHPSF

One experiment concerns the target T1, complete β-kinase domain of the human insulin receptor (CKD) (Homo sapiens, UniProt P06213).
T1 construct: The complete β-kinase domain of the human insulin receptor (CKD); made in house
Briefly: 32P-CKD autophosphorylation assay. It counts as biochemical. The conditions noted are these: 10 min; compound at 10 μM; phosphorylation of CKD expressed as % of the vehicle level; read-out: Activity (% vs. control). The method, then:
The complete β-kinase domain of the human insulin receptor (CKD) was expressed in, and purified from, baculovirus. CKD (4.0 μg/ml), in a solution of 29 mM HEPES (pH 7.6), 0.05% Triton X-100, 10 mM MgCl2, 2 mM MnCl2 (50 μl final volume), is combined with 50 μM ATP, and 5 μCi ^32P-ATP (3000 Ci/mmol).
`CN(C(=O)c1ccccc1)c1ccc(/C=C/c2ccccc2)cc1C(=O)O` [Compound 25, 5-((1E)-2-phenylvinyl)-2-(N-methylphenylcarbonylamino)benzoic acid]: the activity at 10 µM stood at 59%. On the same count and under the same terms, for `COc1cc(C(=O)Nc2ccc(/C=C/c3ccccc3)cc2C(=O)O)cc(OC)c1OC` [Compound 26, 5-((1E)-2-phenylvinyl)-2-[(3,4,5-trimethoxyphenyl)carbonylamino]benzoic acid] the value was 107%; for `COC(=O)c1cc(/C=C/c2ccccc2)ccc1NC(=O)c1ccccc1` [Compound 27, methyl 5-((1E)-2-phenylvinyl)-2-[phenylcarbonylamino)benzoate], 73%. On the same count and under the same terms, then `COc1ccc(/C=C/c2ccc(N(C)C(=O)c3ccccc3)c(C(=O)O)c2)cc1` [Compound 28, 5-[(1E)-2-(4-methoxyphenyl)vinyl]-2-(N-methylphenylcarbonylamino)benzoic acid], with 75%; and `COC(=O)c1ccc(C(=O)N(C)c2ccc(C(=O)Nc3ccc(/C=C/c4ccc(OC)cc4)cc3C(=O)OC)cc2)cc1` [Compound 29, methyl 4-{N-[4-(N-{4-[(1E)-2-(4-methoxyphenyl)vinyl]-2-(methoxycarbonyl)-phenyl}carbamoyl)phenyl]-N-methylcarbamoyl}benzoate], with 61%. On the same count and under the same terms, for `COC(=O)c1ccc(N(C(C)=O)c2ccc(C(=O)Nc3ccc(/C=C/c4ccc(OC)cc4)cc3C(=O)O)cc2)cc1` [Compound 30, 5-[(1E)-2-(4-methoxyphenyl)vinyl]-2-[(4-{[4-(methoxycarbonyl)phenyl]-N-methyl-carbonylamino}phenyl)carbonylamino]benzoic acid] the value was 93%. Consider `COc1ccc(/C=C/c2ccc(NC(=O)c3ccc(N(C(C)=O)c4ccc(C(=O)O)cc4)cc3)c(C(=O)O)c2)cc1` [Compound 31, 5-[(1E)-2-(4-methoxyphenyl)vinyl]-2-({4-[(4-carboxyphenyl)-N-methylcarbonyl-amino]phenyl}carbonylamino)benzoic acid], for which the activity at 10 µM worked out at 121%. On the same count and under the same terms, then `COC(=O)c1ccc(C(=O)N(C)c2ccc(C(=O)Nc3ccc(/C=C/c4ccccc4F)cc3C(=O)OC)cc2)cc1` [Compound 32, methyl 4-{N-[4-(N-{4-[(1E)-2-(2-fluorophenyl)vinyl]-2-(methoxycarbonyl)phenyl}-carbamoyl)phenyl]-N-methylcarbamoyl}benzoate], with 81%; and `CC(=O)N(c1ccc(C(=O)O)cc1)c1ccc(C(=O)Nc2ccc(/C=C/c3ccccc3F)cc2C(=O)O)cc1` [Compound 33, 5-[(1E)-2-(2-fluorophenyl)vinyl]-2-({4-[(4-carboxyphenyl)-N-methylcarbonyl-amino]phenyl}carbonylamino)benzoic acid], with 78%; and `COC(=O)c1ccc(C(=O)N(C)c2ccc(C(=O)Nc3ccc(/C=C/c4ccc(F)cc4)cc3C(=O)OC)cc2)cc1` [Compound 34, methyl 4-{N-[4-(N-{4-[(1E)-2-(4-fluorophenyl)vinyl]-2-(methoxycarbonyl)phenyl}-carbamoyl)phenyl]-N-methylcarbamoyl}benzoate], with 88%. Still for that read-out and setting: then `CC(=O)N(c1ccc(C(=O)O)cc1)c1ccc(C(=O)Nc2ccc(/C=C/c3ccc(F)cc3)cc2C(=O)O)cc1` [Compound 35, 5-[(1E)-2-(4-fluorophenyl)vinyl]-2-({4-[(4-carboxyphenyl)-N-methylcarbonyl-amino]phenyl}carbonylamino)benzoic acid], with 177%; and `COC(=O)c1ccc(N(C(C)=O)c2ccc(C(=O)Nc3ccc(/C=C/c4ccc(S(=O)(=O)O)cc4)cc3C(=O)OC)cc2)cc1` [Compound 36, 4-((1E)-2-{3-(methoxycarbonyl)-4-[(4-{[4-(methoxycarbonyl)phenyl]-N-methyl-carbonylamino}phenyl)carbonylamino]phenyl}vinyl)benzenesulfonic acid], with 171%; and `COC(=O)c1ccc(C(=O)N(C)c2ccc(C(=O)Nc3ccc(/C=C/c4cccc(F)c4)cc3C(=O)OC)cc2)cc1` [Compound 37, methyl 4-{N-[4-(N-{4-[(1E)-2-(3-fluorophenyl)vinyl]-2-(methoxycarbonyl)phenyl}-carbamoyl)phenyl]-N-methylcarbamoyl}benzoate], with 93%. The same measure, in the same setting: then `O=C(Nc1ccc(/C=C/c2ccccc2)c(C(=O)O)c1)c1ccccc1` [Compound 38, 2-((1E)-2-phenylvinyl)-5-(phenylcarbonylamino)benzoic acid], with 105%; and `COC(=O)c1ccc(N(C(C)=O)c2ccc(C(=O)Nc3ccc(/C=C/c4ccccc4)c(C(=O)O)c3)cc2)cc1` [Compound 39, 2-((1E)-2-phenylvinyl)-5-[(4-{[4-(methoxycarbonyl)phenyl]-N-methylcarbonyl-amino}phenyl)carbonylamino]benzoic acid], with 64%; and `O=C(Nc1ccc(/C=C/c2ccccc2)cc1C(=O)O)c1cc(O)cc(O)c1` [Compound 41, 5-((1E)-2-phenylvinyl)-2-[(3,5-dihydroxyphenyl)carbonylamino]benzoic acid], with 80%. As for `COc1cccc(C(=O)Nc2ccc(/C=C/c3ccccc3)cc2C(=O)O)c1` [Compound 42, 5-((1E)-2-phenylvinyl)-2-[(3-methoxyphenyl)carbonylamino]benzoic acid], the activity at 10 µM was determined as 123%. Same read-out and setting: for `COC(=O)c1ccc(/C=C/c2ccc(NC(=O)c3ccc(N(C)C(=O)c4ccc(C(=O)OC)cc4)cc3)cc2)cc1` [Compound 44, methyl 4-(N-{4-[N-(4-{(1E)-2-[4-(methoxycarbonyl)phenyl]vinyl}phenyl)-carbamoyl]phenyl}-N-methylcarbamoyl)benzoate] the value was 97%; for `COC(=O)c1ccc(N(C(C)=O)c2ccc(C(=O)Nc3ccc(/C=C/c4cccc(CC(=O)O)c4)cc3)cc2)cc1` [Compound 46, 2-[3-((1E)-2-{4-[(4-{[4-(methoxycarbonyl)phenyl]-N-methylcarbonylamino}-phenyl)carbonylamino]phenyl}vinyl)phenyl]acetic acid], 91%. The same measure, in the same setting: then `COC(=O)c1ccc(N(C(C)=O)c2ccc(N(C(C)=O)c3ccc(/C=C/c4ccc(OC(C)(C)C)c(C(=O)O)c4)cc3)cc2)cc1` [Compound 49, 5-((1E)-2-{4-[(4-{[4-(methoxycarbonyl)phenyl]-N-methylcarbonylamino}phenyl)-N-methylcarbonylamino]phenyl}vinyl)-2-(tert-butoxy)benzoic acid], with 81%; and `CC(=O)N(c1ccc(/C=C/c2ccc(OC(C)(C)C)c(C(=O)O)c2)cc1)c1ccc(N(C(C)=O)c2ccc(C(=O)O)cc2)cc1` [Compound 50, 5-{(1E)-2-[4-({4-[(4-carboxyphenyl)-N-methylcarbonylamino]phenyl}-N-methyl-carbonylamino)phenyl]vinyl}-2-(tert-butoxy)benzoic acid], with 105%. For `COC(=O)c1cc(/C=C/c2ccccc2)ccc1NC(=O)c1ccc(OC)c(OC)c1` [Compound 52, methyl 5-((1E)-2-phenylvinyl)-2-[(3,4-dimethoxyphenyl)carbonylamino]benzoate], the activity at 10 µM was 54%. Still for that read-out and setting: for `COc1ccc(C(=O)Nc2ccc(/C=C/c3ccccc3)cc2C(=O)O)cc1OC` [Compound 53, 5-((1E)-2-phenylvinyl)-2-[(3,4-dimethoxyphenyl)carbonylamino]benzoic acid] the value was 105%; for `COc1cccc(C(=O)Nc2ccc(/C=C/c3ccccc3)cc2CC(=O)O)c1` [Compound 55, 2-{5-((1E)-2-phenylvinyl)-2-[(3-methoxyphenyl)carbonylamino]phenyl}acetic acid], 117%; for `COc1ccc(/C=C/c2ccc(N(Cc3ccc(C(=O)O)cc3)C(=O)c3ccc(N(C(C)=O)c4ccc(C(=O)O)cc4)cc3)c(C(=O)O)c2)cc1` [Compound 57, 5-[(1E)-2-(4-methoxyphenyl)vinyl]-2-(N-[(4-carboxyphenyl)methyl]{4-[(4-carboxy-phenyl)-N-methylcarbonylamino]phenyl}carbonylamino)benzoic acid], 107%. Same read-out and setting: then `O=C(O)COc1cc(OCC(=O)O)cc(C(=O)Nc2ccc(/C=C/c3ccccc3)cc2C(=O)O)c1` [Compound 59, 5-((1E)-2-phenylvinyl)-2-{[3,5-bis(carboxymethoxy)phenyl]carbonylamino}benzoic acid], with 94%; and `O=C(O)c1ccc(COc2cc(OCc3ccc(C(=O)O)cc3)cc(C(=O)Nc3ccc(/C=C/c4ccccc4)cc3C(=O)O)c2)cc1` [Compound 60, 5-((1E)-2-phenylvinyl)-2-({3,5-bis[(4-carboxyphenyl)methoxy]phenyl}carbonyl-amino)benzoic acid], with 80%.

Still in this experiment, the particulars now being: compound at 10 μM; phosphorylation of CKD expressed as % of the vehicle level.
Turning to `COc1ccc(/C=C/c2ccc(NC(=O)c3ccc4c(c3)OCO4)cc2)cc1` [Compound 56, N-{4-[(1E)-2-(4-methoxyphenyl)vinyl]phenyl}-2H-benzo[d]1,3-dioxolen-5-yl-carboxamide], the “Activity (% vs. control)” value stood at 51%.
